Source: article PMC11637378, “Optogenetic screening of MCT1 activity implicates a cluster of non-steroidal anti-inflammatory drugs (NSAIDs) as inhibitors of lactate transport” (PLOS ONE, 2024)

Assays:
parent strain (SAWy518) [1] = test: Off-target control in IC50 determination: growth of light-insensitive parent strain at each inhibitor concentration; assay type: cell-based, Saccharomyces cerevisiae; details: at the dosages used in this study
parent strain (SAWy518) [2] = test: microbe, parasite or virus in culture; parameters: species or system Saccharomyces cerevisiae SAWy518; Off-target growth counter-screen, OD600 as per cent of untreated wells, strain lacking MCT1; details: 18.5 h; sheet Primary Screen - final;; off-target growth of parent strain, about 18 h
Description: Cells were grown for 18 hours prior to OD measurement. Fill represents manual compound grouping based on compound class or target. OD600 is reported in Tecan units. […] The drug library used in this study for the initial screen and rescreen was provided by the Small Molecule Screening Center at Princeton University, through a collaboration with Dr. Hahn Kim. […] Follow-up analysis (IC50 determinations) on library compounds was performed using compounds purchased from outside sources. […] Stocks were then diluted 100-fold into media containing 0.01 OD600 inoculation of yeast, to achieve the final concentrations listed. Where compounds were added manually (for example 10 μM AZD3965 addition) stock concentrations were diluted by a factor of 100-fold regardless of scale, resulting in a final concentration of 1% v/v DMSO which is well tolerated by yeast.

MCT1 = details: library annotation, cited from earlier work; for MCT1 inhibitor annotation: NOTES/Group column, ref not given
parent strain (SAWy518) [3] = system: parent strain (SAWy518)

Compound | off-target toxicity (parent strain (SAWy518) [1]) | viability at 10 µM (parent strain (SAWy518) [2]) [%] | MCT1 inhibitor annotation (MCT1) | OffScreen_percentage (parent strain (SAWy518) [3]) [percentage] | Offscreen_18hr (parent strain (SAWy518) [3]) | Offscreen_24hr (parent strain (SAWy518) [3]) | Offscreen_42hr (parent strain (SAWy518) [3]) | Read_percentage (parent strain (SAWy518) [3]) | MCT1 inhibition (annotation) (MCT1) | Known MCT1 inhibitor (MCT1)
CC(C(=O)O)c1cccc(C(=O)c2ccccc2)c1 (centres unmarked) [Ketoprofen] | do not exhibit off-target toxicity | – | – | – | – | – | – | – | – | –
O=C(CCc1ccc(O)cc1)c1c(O)cc(O)cc1O [Phloretin] | – | 94.4 | MCT1 inhibitor | 94.4238 | 0.762 | 0.892 | 0.9541 | 94.4238 percentage | – | –
O=c1c(O)c(-c2ccc(O)c(O)c2)oc2cc(O)cc(O)c12 [Quercetin (Sophoretin)] | – | – | – | – | 0.7827 | 0.8834 | 0.9444 | – | PI3K, PKC, Src, Sirtuin inhibitor, MCT1 inhibitor - flavanoid | –
O=c1c(O)c(-c2ccc(O)c(O)c2)oc2cc(O)cc(O)c12 [Quercetin dihydrate] | – | – | – | – | 0.7753 | 0.8789 | 0.9377 | – | Known MCT1 inhibitor, PI3-K and PDE inhibitor (flavanoid) | –
O=c1c(O)c(-c2ccc(O)c(O)c2)oc2cc(O)cc(O)c12 [Quercetin, reference compound] | – | – | Known MCT1 inhibitor, PI3-K and PDE inhibitor (flavanoid) | 96.0719 | 0.7753 | 0.8789 | 0.9377 | 96.0719 percentage | – | Known MCT1 inhibitor, PI3-K and PDE inhibitor (flavanoid)
CC1=C(CC(=O)O)c2cc(F)ccc2/C1=C\c1ccc([S+](C)[O-])cc1 (centres unmarked) [Sulindac, reference compound] | do not exhibit off-target toxicity | – | – | 103.073 | 0.8318 | 0.9131 | 0.9739 | 103.073 | – | –
CC/C(=C(\c1ccccc1)c1ccc(OCCN(C)C)cc1)c1ccccc1.O=C(O)CC(O)(CC(=O)O)C(=O)O [Tamoxifen Citrate] | – | 96.6 | – | 96.6419 | 0.7799 | 0.893 | 0.9507 | 96.6419 | – | –
NCCS(=O)(=O)O [Taurine] | – | 104 | – | 104.139 | 0.8404 | 0.9173 | 0.9826 | 104.139 | – | –
CCOC(=O)[C@@H](N)Cc1ccc(-c2cc(O[C@H](c3ccc(Cl)cc3-n3ccc(C)n3)C(F)(F)F)nc(N)n2)cc1.O=C(O)CNC(=O)c1ccccc1 [Telotristat Etiprate] | – | 96.9 | – | 96.9393 | 0.7823 | 0.9107 | 0.9681 | 96.9393 | – | –
N#CC(=C(\N)Sc1ccccc1N)/C(C#N)=C(/N)Sc1ccccc1N [U0126] | – | 91.1 | – | 91.0905 | 0.7351 | 0.8786 | 0.95 | 91.0905 | – | –
COc1cc(C(=O)NS(=O)(=O)c2ccccc2C)ccc1Cc1cn(C)c2ccc(NC(=O)OC3CCCC3)cc12 [Zafirlukast] | – | 104 | – | 103.829 | 0.8379 | 0.9188 | 0.9793 | 103.829 | – | –
COc1c(O)cc2oc3cc(O)c(CC=C(C)C)c(O)c3c(=O)c2c1CC=C(C)C [alpha-mangostin] | – | 90 | – | 89.9628 | 0.726 | 0.8801 | 0.9296 | 89.9628 percentage | – | –
